Results from patent US12581252B2, “Substituted pyrrolo[3,4-b]pyridines as PI3K-α inhibitors” (Relay Therapeutics, Inc., priority 2020, dated 2026).

Target: H1047R PIK3CA enzyme (Homo sapiens, UniProt P42336, H1047R)
Assay: ADP-Glo Biochemical PIK3CA Kinase Assay

Sequence of H1047R PIK3CA enzyme (P42336 whole entry H1047R): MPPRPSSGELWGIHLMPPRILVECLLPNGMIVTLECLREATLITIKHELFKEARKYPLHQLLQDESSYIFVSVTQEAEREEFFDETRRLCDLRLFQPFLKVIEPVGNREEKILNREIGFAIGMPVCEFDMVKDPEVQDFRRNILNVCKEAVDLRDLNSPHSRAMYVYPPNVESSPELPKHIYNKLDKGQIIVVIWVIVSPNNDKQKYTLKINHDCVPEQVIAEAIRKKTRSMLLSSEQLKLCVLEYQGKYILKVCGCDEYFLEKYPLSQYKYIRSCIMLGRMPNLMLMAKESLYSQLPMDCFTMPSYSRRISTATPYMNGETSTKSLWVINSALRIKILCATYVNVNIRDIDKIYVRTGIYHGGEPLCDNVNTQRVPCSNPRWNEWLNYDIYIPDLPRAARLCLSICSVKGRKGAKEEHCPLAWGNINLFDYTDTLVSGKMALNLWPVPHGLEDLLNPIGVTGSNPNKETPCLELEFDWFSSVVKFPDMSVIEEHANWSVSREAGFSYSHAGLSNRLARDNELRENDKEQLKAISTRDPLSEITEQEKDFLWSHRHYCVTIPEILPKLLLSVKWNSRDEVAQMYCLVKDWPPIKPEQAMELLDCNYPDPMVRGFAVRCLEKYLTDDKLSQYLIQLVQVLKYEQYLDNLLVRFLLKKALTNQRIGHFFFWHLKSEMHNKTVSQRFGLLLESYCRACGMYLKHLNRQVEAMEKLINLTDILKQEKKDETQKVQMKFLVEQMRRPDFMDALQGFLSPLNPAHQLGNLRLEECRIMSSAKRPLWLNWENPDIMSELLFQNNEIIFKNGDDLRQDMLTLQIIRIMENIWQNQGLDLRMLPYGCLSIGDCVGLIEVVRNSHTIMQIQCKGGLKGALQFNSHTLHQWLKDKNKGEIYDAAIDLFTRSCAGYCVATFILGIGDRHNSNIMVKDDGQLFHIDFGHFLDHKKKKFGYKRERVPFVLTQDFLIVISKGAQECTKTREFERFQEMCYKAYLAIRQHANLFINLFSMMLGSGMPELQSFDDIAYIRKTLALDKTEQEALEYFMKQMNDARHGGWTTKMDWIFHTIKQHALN
Sequence of H1047R PIK3CA enzyme (P27986 whole entry partner): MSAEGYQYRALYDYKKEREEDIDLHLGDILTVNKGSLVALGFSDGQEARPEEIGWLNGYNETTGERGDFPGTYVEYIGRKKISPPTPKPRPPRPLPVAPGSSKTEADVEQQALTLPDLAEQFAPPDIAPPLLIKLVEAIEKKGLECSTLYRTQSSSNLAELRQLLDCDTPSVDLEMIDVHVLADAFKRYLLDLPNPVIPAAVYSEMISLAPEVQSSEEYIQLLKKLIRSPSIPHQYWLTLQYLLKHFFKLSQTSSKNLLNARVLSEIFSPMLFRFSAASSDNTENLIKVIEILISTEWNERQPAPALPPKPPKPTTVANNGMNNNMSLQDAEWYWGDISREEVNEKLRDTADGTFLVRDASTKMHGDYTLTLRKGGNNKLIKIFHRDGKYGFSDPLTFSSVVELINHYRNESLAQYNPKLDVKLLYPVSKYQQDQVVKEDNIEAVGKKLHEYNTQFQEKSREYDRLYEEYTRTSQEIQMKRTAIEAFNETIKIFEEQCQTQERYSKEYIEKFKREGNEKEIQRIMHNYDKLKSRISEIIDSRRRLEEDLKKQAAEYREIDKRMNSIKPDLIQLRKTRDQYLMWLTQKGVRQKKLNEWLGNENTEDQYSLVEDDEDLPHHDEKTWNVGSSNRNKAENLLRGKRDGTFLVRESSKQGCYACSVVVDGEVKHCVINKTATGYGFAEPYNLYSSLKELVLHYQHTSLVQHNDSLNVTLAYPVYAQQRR

IC50	SMILES
≤ 100 nM	O=C(Nc1cc(-c2cn3cc(C(F)F)nc3cn2)cc2c1C(c1cc(F)ccc1Cl)NC2=O)c1cc(F)cc(C(F)(F)F)c1 (stereo not shown) [Compound I-2065]
100 to 500 nM	COCCOc1cc(NC(=O)c2cc(F)cc(C(F)(F)F)c2)c2c(c1)C(=O)NC2c1cc(F)ccc1Cl (stereo not shown) [Compound I-977]
10000 to 100000 nM	O=C1NC(c2cc(F)ccc2Cl)c2c(NC(=O)C3CCCC3C(F)F)cc(Br)cc21 (stereo not shown) [Compound I-1621]
1000 to 10000 nM	Cc1ccccc1C1NC(=O)c2cc(Br)cc(NC(=O)c3cncc(C(F)(F)F)c3)c21 (stereo not shown) [Compound I-528]
100 to 500 nM	O=C(Nc1cc(C(O)(O)C(F)(F)F)cc2c1C(c1cc(F)ccc1Cl)NC2=O)c1cc(F)cc(C(F)(F)F)c1 (stereo not shown) [Compound I-484]
1000 to 10000 nM	O=C1N[C@H](c2ccccc2Cl)c2c(NC(=O)N3C[C@](O)(C(F)(F)F)c4cc(F)ccc43)cccc21 (single isomer, unassigned) [Compound I-2687]
1000 to 10000 nM	O=C(Nc1cc(-c2cn3c(F)cnc3cn2)cc2c1[C@@H](c1cc(F)ccc1Cl)NC2=O)c1cc(F)cc(C(F)(F)F)c1 [Compound I-1877]
100 to 500 nM	O=C1NC(c2cc(F)ccc2Cl)c2c(NC(=O)C34CC5CC(CC(C5)C3)C4)cccc21 (stereo not shown) [Compound I-876]
1000 to 10000 nM	O=C(Nc1cccc2c1C(c1cc(F)ccc1Cl)NC2=O)c1cc(C(F)(F)F)cc(Cl)n1 (stereo not shown) [Compound I-724]
10000 to 100000 nM	O=C1NC(c2cc(F)ccc2Cl)c2c(NC(=O)c3cc(Cl)cc4cccnc34)cc(Br)cc21 (stereo not shown) [Compound I-802]
1000 to 10000 nM	O=C(Nc1cccc2c1C(c1cc(-c3ccccc3)ccc1Cl)NC2=O)c1cc(F)cc(C(F)(F)F)c1 (stereo not shown) [Compound I-486]
1000 to 10000 nM	O=C(Nc1cc(-c2ccc(=O)n(C3CC3)c2)nc2c1[C@@H](c1cc(F)ccc1Cl)NC2=O)c1cc(F)cc(C(F)(F)F)c1 [Compound I-746]
100 to 500 nM	C[C@H]([C@@H]1C[C@@H](O)CN1C(=O)Nc1cccc2c1[C@H](c1cc(F)ccc1Cl)NC2=O)C(F)(F)F (racemic) [Compound I-2341]
10000 to 100000 nM	COc1ccc2c(c1)CCN2C(=O)Nc1cccc2c1C(c1cc(F)ccc1Cl)NC2=O (stereo not shown) [Compound I-2437]
10000 to 100000 nM	COc1cc(F)c(F)c(C(=O)Nc2cccc3c2C(c2ccccc2C)NC3=O)c1 (stereo not shown) [Compound I-341]
1000 to 10000 nM	O=C1NC(c2cc(F)ccc2Cl)c2c(NC(=O)N3CCNc4ccccc43)cc(Br)cc21 (stereo not shown) [Compound I-716]
10000 to 100000 nM	O=C1NC(c2cc(F)ccc2Cl)c2c(NS(=O)(=O)N3CCc4ccccc43)cc(Br)cc21 (stereo not shown) [Compound I-1287]
10000 to 100000 nM	COc1cc(C)c(C(=O)Nc2cc(Br)cc3c2C(c2cc(F)ccc2Cl)NC3=O)cn1 (stereo not shown) [Compound I-850]
≤ 100 nM	O=C(Nc1cc(Cc2ccc3c(c2)CNC3=O)cc2c1[C@H](c1cc(F)ccc1Cl)NC2=O)c1cc(F)cc(C(F)(F)F)c1 (stereo in doubt) [Compound I-1612]
10000 to 100000 nM	CN1CCCC[C@@H]1[C@@H]1NC(=O)c2cccc(NC(=O)c3cc(F)cc(C(F)(F)F)c3)c21 (racemic) [Compound I-1713]
≤ 100 nM	C[S@](=O)(Cc1cc(NC(=O)c2cc(F)cc(C(F)(F)F)c2)c2c(c1)C(=O)N[C@H]2c1cc(F)ccc1Cl)=NC#N (single isomer, unassigned) [Compound I-1564]
≤ 100 nM	O=C(Nc1cc(OCC(O)CO)cc2c1C(c1cc(F)ccc1Cl)NC2=O)c1cc(F)cc(C(F)(F)F)c1 (stereo not shown) [Compound I-1341]
≤ 100 nM	Cc1ccccc1C1NC(=O)c2cc(-c3cnoc3)cc(NC(=O)c3csc4ccccc34)c21 (stereo not shown) [Compound I-141]

IC50	SMILES
10000 to 100000 nM	CC(=O)N1CCCC(C(=O)Nc2cc(-c3ccc4ncnn4c3)cc3c2C(c2cc(F)ccc2Cl)NC3=O)C1 (stereo not shown) [Compound I-1743]
≤ 100 nM	N#CC1(CNc2cc(NC(=O)c3cc(F)cc(C(F)(F)F)c3)c3c(c2)C(=O)NC3c2cc(F)ccc2Cl)CC1 (stereo not shown) [Compound I-695]
100 to 500 nM	O=C1NC(C2CCCCC2)c2c(NC(=O)c3nsc4ccccc34)cccc21 (stereo not shown) [Compound I-204, N-(3-Cyclohexyl-1-oxoisoindolin-4-yl)benzo[d]isothiazole-3-carboxamide]
≤ 100 nM	CC(C)(O)C#Cc1cc(NC(=O)c2cc(F)cc(C(F)(F)F)c2)c2c(c1)C(=O)NC2c1cc(F)ccc1Cl (stereo not shown) [Compound I-1191]
≤ 100 nM	COc1cnc(-c2cc(NC(=O)c3cc(F)cc(C(F)(F)F)c3)c3c(c2)C(=O)NC3c2cc(F)ccc2Cl)cn1 (stereo not shown) [Compound I-1103]
≤ 100 nM	CS(=O)(=O)Cc1cc(NC(=O)c2cc(F)cc(Cl)c2)c2c(c1)C(=O)NC2c1cc(F)ccc1Cl (stereo not shown) [Compound I-231]
≤ 100 nM	O=C(Nc1cc(CS(=O)(=O)c2ccncc2)cc2c1C(c1cc(F)ccc1Cl)NC2=O)c1cc(F)cc(C(F)(F)F)c1 (stereo not shown) [Compound I-1495]
100 to 500 nM	CC1(C)COC(Nc2cc(NC(=O)c3cc(F)cc(C(F)(F)F)c3)c3c(c2)C(=O)NC3c2cc(F)ccc2Cl)=N1 (stereo not shown) [Compound I-2358]
1000 to 10000 nM	O=C(Nc1cc(Br)cc2c1C(c1cc(F)ccc1Cl)NC2=O)c1cccc(C2CC2)c1 (stereo not shown) [Compound I-569]
500 to 1000 nM	O=C(Nc1cc(-c2ccc3ncc(C(F)F)n3c2)cc2c1[C@@H](c1cc(F)ccc1Cl)NC2=O)c1cc(F)cc(C(F)(F)F)c1 [Compound I-1936]
≤ 100 nM	O=C(Nc1cc(N2CCc3ncccc32)cc2c1C(c1cc(F)ccc1Cl)NC2=O)c1cc(F)cc(C(F)(F)F)c1 (stereo not shown) [Compound I-1260]
1000 to 10000 nM	O=C(Nc1cc(Br)cc2c1[C@@H](c1cc(F)c(F)cc1Cl)NC2=O)c1cc(F)cc(C(F)(F)F)c1 [Compound I-676]
≤ 100 nM	O=C(CCl)Nc1cc(NC(=O)c2cc(F)cc(C(F)(F)F)c2)c2c(c1)C(=O)NC2c1cc(F)ccc1Cl (stereo not shown) [Compound I-407]
10000 to 100000 nM	O=C1N[C@H](c2cc(F)ccc2Cl)c2c(NC(=O)N3C[C@H](O)C[C@@H]3CC(F)(F)F)cccc21 (racemic) [Compound I-2163]
10000 to 100000 nM	N#Cc1ccccc1C(=O)Nc1cc(Br)cc2c1C(c1cc(F)ccc1Cl)NC2=O (stereo not shown) [Compound I-639]
1000 to 10000 nM	O=C(Nc1cc(-c2ccn3ncnc3c2)cc2c1[C@@H](c1cc(F)ccc1Cl)NC2=O)c1cc(F)cc(C(F)(F)F)c1 (stereo in doubt) [Compound I-1596]
≤ 100 nM	CS(=O)(=O)CCn1cc(-c2cc(NC(=O)c3cc(F)cc(C(F)(F)F)c3)c3c(c2)C(=O)NC3c2cc(F)ccc2Cl)cn1 (stereo not shown) [Compound I-1398]
≤ 100 nM	Cn1cc(-c2cc(NC(=O)c3cc(F)cc(Cl)c3)c3c(n2)C(=O)NC3c2cc(F)ccc2Cl)ccc1=O (stereo not shown) [Compound I-456]
1000 to 10000 nM	O=C(Nc1cccc2c1C(c1cc(F)ccc1Cl)NC2=O)c1cc(F)ccc1NC1CCC1 (stereo not shown) [Compound I-872]
≤ 100 nM	O=C(Nc1cc(-c2cnn(-c3ccncn3)c2)cc2c1C(c1cc(F)ccc1Cl)NC2=O)c1cc(F)cc(C(F)(F)F)c1 (stereo not shown) [Compound I-1465]
10000 to 100000 nM	O=C(Nc1cccc2c1C(c1cccc(C3CC3)c1)NC2=O)c1cc(F)cc(C(F)(F)F)c1 (stereo not shown) [Compound I-718]
10000 to 100000 nM	CN(C)c1cc(NC(=O)N2C[C@](O)(C(F)(F)F)c3cc(F)ccc32)c2c(n1)C(=O)N[C@@H]2c1cc(F)ccc1Cl (single isomer, unassigned) [Compound I-2692]
≤ 100 nM	O=C(Nc1cc(N2CCCC(F)(F)C2)nc2c1C(c1cc(F)ccc1Cl)NC2=O)c1cc(F)cc(C(F)(F)F)c1 (stereo not shown) [Compound I-538]
